# Patent US20260053812A1, “METHODS OF TREATING HYPERTENSION WITH A COMBINATION OF AN ALDOSTERONE SYNTHASE INHIBITOR AND A DIURETIC” (Mineralys Therapeutics, Inc., priority 2022, published 2026)
# Experiment: Adverse events (TEAEs, SAEs, AESI; Safety Analysis Set)
# Description: In analyses performed on the Safety Analysis Set, subjects will be analyzed according to their actual treatment received.
compound,measurement,setting,value
CC(=O)N[C@H]1CC[C@H](NC(=O)CN2CCN(c3nncc(-c4ccc(C)cc4)n3)CC2)CC1 [Compound A HBr],"On-treatment TEAE, Vascular disorders, Mild, %","Part 1, 12.5 mg QD (N = 23)",(8.7) %
same,"On-treatment TEAE, Vascular disorders, Moderate, %","Part 1, 12.5 mg QD (N = 23)",(4.3) %
same,"Subjects with any On-treatment TEAEs leading to withdrawal from study drug, %","Part 1, 12.5 mg QD (N = 23)",(17.4) %
same,"Subjects with any On-treatment TEAEs, Mild, %","Part 1, 12.5 mg QD (N = 23)",(52.2) %
same,"Subjects with any On-treatment TEAEs, Moderate, %","Part 1, 12.5 mg QD (N = 23)",(13.0) %
same,"Subjects with any On-treatment TEAEs, Severe, %","Part 1, 12.5 mg QD (N = 23)",(4.3) %
same,"TEAE leading to permanent discontinuation from study drug, Cardiac disorders, %","Part 1, 12.5 mg QD (N = 23)",(4.3) %
same,"TEAE leading to permanent discontinuation from study drug, Coronary artery disease, %","Part 1, 12.5 mg QD (N = 23)",(4.3) %
same,"TEAE leading to permanent discontinuation from study drug, Dizziness, %","Part 1, 12.5 mg QD (N = 23)",(4.3) %
same,"TEAE leading to permanent discontinuation from study drug, Hyperkalaemia, %","Part 1, 12.5 mg QD (N = 23)",(8.7) %
same,"TEAE leading to permanent discontinuation from study drug, Metabolism and nutrition disorders, %","Part 1, 12.5 mg QD (N = 23)",(8.7) %
same,"TEAE leading to permanent discontinuation from study drug, Nervous system disorders, %","Part 1, 12.5 mg QD (N = 23)",(4.3) %
same,"On-treatment TEAE, Blood and lymphatic system disorders, %","Part 1, 25 mg BID (N = 30)",(6.7) %
same,"On-treatment TEAE, Blood and lymphatic system disorders, Mild, %","Part 1, 25 mg BID (N = 30)",(6.7) %
same,"On-treatment TEAE, Cortisol decreased, %","Part 1, 25 mg BID (N = 30)",(3.3) %
same,"On-treatment TEAE, Cortisol decreased, Mild, %","Part 1, 25 mg BID (N = 30)",(3.3) %
same,"On-treatment TEAE, Gastrointestinal disorders, %","Part 1, 25 mg BID (N = 30)",(3.3) %
same,"On-treatment TEAE, Gastrointestinal disorders, Mild, %","Part 1, 25 mg BID (N = 30)",(3.3) %
same,"On-treatment TEAE, Headache, %","Part 1, 25 mg BID (N = 30)",(6.7) %
same,"On-treatment TEAE, Headache, Mild, %","Part 1, 25 mg BID (N = 30)",(6.7) %
same,"On-treatment TEAE, Hyperkalaemia, %","Part 1, 25 mg BID (N = 30)",(30.0) %
same,"On-treatment TEAE, Hyperkalaemia, Mild, %","Part 1, 25 mg BID (N = 30)",(23.3) %
same,"On-treatment TEAE, Hyperkalaemia, Moderate, %","Part 1, 25 mg BID (N = 30)",(6.7) %
same,"On-treatment TEAE, Hypertension, %","Part 1, 25 mg BID (N = 30)",(3.3) %
same,"On-treatment TEAE, Infections and infestations, %","Part 1, 25 mg BID (N = 30)",(10.0) %
same,"On-treatment TEAE, Infections and infestations, Mild, %","Part 1, 25 mg BID (N = 30)",(6.7) %
same,"On-treatment TEAE, Infections and infestations, Moderate, %","Part 1, 25 mg BID (N = 30)",(3.3) %
same,"On-treatment TEAE, Investigations, %","Part 1, 25 mg BID (N = 30)",(10.0) %
same,"On-treatment TEAE, Investigations, Mild, %","Part 1, 25 mg BID (N = 30)",(6.7) %
same,"On-treatment TEAE, Investigations, Moderate, %","Part 1, 25 mg BID (N = 30)",(3.3) %
same,"On-treatment TEAE, Metabolism and nutrition disorders, %","Part 1, 25 mg BID (N = 30)",(33.3) %
same,"On-treatment TEAE, Metabolism and nutrition disorders, Mild, %","Part 1, 25 mg BID (N = 30)",(26.7) %
same,"On-treatment TEAE, Metabolism and nutrition disorders, Moderate, %","Part 1, 25 mg BID (N = 30)",(6.7) %
same,"On-treatment TEAE, Nervous system disorders, %","Part 1, 25 mg BID (N = 30)",(10.0) %
same,"On-treatment TEAE, Nervous system disorders, Mild, %","Part 1, 25 mg BID (N = 30)",(6.7) %
same,"On-treatment TEAE, Urinary tract infection, %","Part 1, 25 mg BID (N = 30)",(10.0) %
same,"On-treatment TEAE, Urinary tract infection, Mild, %","Part 1, 25 mg BID (N = 30)",(6.7) %
same,"On-treatment TEAE, Vascular disorders, %","Part 1, 25 mg BID (N = 30)",(3.3) %
same,"On-treatment TEAE, Vascular disorders, Mild, %","Part 1, 25 mg BID (N = 30)",(3.3) %
same,"Subjects with any On-treatment TEAEs leading to withdrawal from study drug, %","Part 1, 25 mg BID (N = 30)",3.3%
same,"Subjects with any On-treatment TEAEs, Mild, %","Part 1, 25 mg BID (N = 30)",(46.7) %
same,"Subjects with any On-treatment TEAEs, Moderate, %","Part 1, 25 mg BID (N = 30)",(13.3) %
same,"TEAE leading to permanent discontinuation from study drug, Hyperkalaemia, %","Part 1, 25 mg BID (N = 30)",3.3%
same,"TEAE leading to permanent discontinuation from study drug, Hypertension, %","Part 1, 25 mg BID (N = 30)",3.3%
same,"TEAE leading to permanent discontinuation from study drug, Metabolism and nutrition disorders, %","Part 1, 25 mg BID (N = 30)",3.3%
same,"TEAE leading to permanent discontinuation from study drug, Vascular disorders, %","Part 1, 25 mg BID (N = 30)",3.3%
same,"On-treatment TEAE, Cardiac disorders, %","Part 1, 50 mg QD (N = 28)",(3.6) %
same,"On-treatment TEAE, Dizziness, %","Part 1, 50 mg QD (N = 28)",(7.1) %
same,"On-treatment TEAE, Gastrointestinal disorders, %","Part 1, 50 mg QD (N = 28)",(3.6) %
same,"On-treatment TEAE, Gastrointestinal disorders, Mild, %","Part 1, 50 mg QD (N = 28)",(3.6) %
same,"On-treatment TEAE, General disorders and administration site conditions, %","Part 1, 50 mg QD (N = 28)",(7.1) %
same,"On-treatment TEAE, General disorders and administration site conditions, Mild, %","Part 1, 50 mg QD (N = 28)",(3.6) %
same,"On-treatment TEAE, Headache, %","Part 1, 50 mg QD (N = 28)",(3.6) %
same,"On-treatment TEAE, Headache, Mild, %","Part 1, 50 mg QD (N = 28)",(3.6) %
same,"On-treatment TEAE, Hyperkalaemia, %","Part 1, 50 mg QD (N = 28)",(10.7) %
same,"On-treatment TEAE, Hyperkalaemia, Mild, %","Part 1, 50 mg QD (N = 28)",(10.7) %
same,"On-treatment TEAE, Hypertension, %","Part 1, 50 mg QD (N = 28)",(7.1) %
same,"On-treatment TEAE, Hypertension, Moderate, %","Part 1, 50 mg QD (N = 28)",(7.1) %
same,"On-treatment TEAE, Infections and infestations, %","Part 1, 50 mg QD (N = 28)",(7.1) %
same,"On-treatment TEAE, Infections and infestations, Moderate, %","Part 1, 50 mg QD (N = 28)",(7.1) %
same,"On-treatment TEAE, Investigations, %","Part 1, 50 mg QD (N = 28)",(3.6) %
same,"On-treatment TEAE, Investigations, Mild, %","Part 1, 50 mg QD (N = 28)",(3.6) %
same,"On-treatment TEAE, Metabolism and nutrition disorders, %","Part 1, 50 mg QD (N = 28)",(17.9) %
same,"On-treatment TEAE, Metabolism and nutrition disorders, Mild, %","Part 1, 50 mg QD (N = 28)",(17.9) %
same,"On-treatment TEAE, Nervous system disorders, %","Part 1, 50 mg QD (N = 28)",(7.1) %
same,"On-treatment TEAE, Nervous system disorders, Mild, %","Part 1, 50 mg QD (N = 28)",(3.6) %
same,"On-treatment TEAE, Urinary tract infection, %","Part 1, 50 mg QD (N = 28)",(7.1) %
same,"On-treatment TEAE, Urinary tract infection, Mild, %","Part 1, 50 mg QD (N = 28)",(3.6) %
same,"On-treatment TEAE, Vascular disorders, %","Part 1, 50 mg QD (N = 28)",(7.1) %
same,"On-treatment TEAE, Vascular disorders, Moderate, %","Part 1, 50 mg QD (N = 28)",(7.1) %
same,"Subjects with any On-treatment TEAEs, Mild, %","Part 1, 50 mg QD (N = 28)",(14.3) %
same,"Subjects with any On-treatment TEAEs, Moderate, %","Part 1, 50 mg QD (N = 28)",(21.4) %
same,"On-treatment TEAE, Blood creatinine increased, %","Part 1, 100 mg QD (N = 30)",(10.0) %
same,"On-treatment TEAE, Blood creatinine increased, Mild, %","Part 1, 100 mg QD (N = 30)",(10.0) %
same,"On-treatment TEAE, Gastrointestinal disorders, %","Part 1, 100 mg QD (N = 30)",(6.7) %
same,"On-treatment TEAE, Gastrointestinal disorders, Mild, %","Part 1, 100 mg QD (N = 30)",(6.7) %
same,"On-treatment TEAE, Glomerular filtration rate decreased, %","Part 1, 100 mg QD (N = 30)",(16.7) %
same,"On-treatment TEAE, Glomerular filtration rate decreased, Mild, %","Part 1, 100 mg QD (N = 30)",(13.3) %
same,"On-treatment TEAE, Hyperkalaemia, %","Part 1, 100 mg QD (N = 30)",(26.7) %
